Calls of active or inactive are those of the source. The rule behind the calls is not given here.
Test system: Crimean-Congo hemorrhagic fever virus L protein ovarian tumor domain protease (vOTU)
Assay: PubChem AID 743499
Settings: purified CCHFV vOTU, di-Ub K63 fluorescence cleavage, stronger effect = higher value

**Q.** With `Cc1ccc(N2C(=O)[C@@H]3[C@H](C2=O)C2c4ccccc4C=CN2[C@@H]3C(=O)c2ccco2)cc1` (stereo partly specified) as the molecule, how does the inhibition (at 5.2 µM) read?
**A.** Its inhibition is 31.4%.

**Q.** For `Cc1ccc(NC2=CC(=O)C(=O)c3ccccc32)cc1`, which inhibition (at 12.24 µM) is on record?
**A.** Its inhibition is 103%.

**Q.** For `O=C(c1ccco1)[C@@H]1[C@@H]2C(=O)N(c3ccc(Br)cc3)C(=O)[C@@H]2C2c3ccccc3C=CN21` (stereo partly specified), which inhibition (at 11.01 µM) is on record?
**A.** The inhibition was 59.9%.

**Q.** `O=C(COC(=O)c1ccc([N+](=O)[O-])s1)Nc1ncc(C(F)(F)F)cc1Cl` was tested. Which inhibition (at 27.79 µM) did it give?
**A.** The inhibition was 68.2%.

**Q.** `COc1cc(Br)c(C(=O)c2nccc3cc(OC)c(OC)cc23)cc1OC` was tested. Which inhibition (at 1.13 µM) did it give?
**A.** Its inhibition is 21%.

**Q.** `O=C(COC(=O)c1ccc([N+](=O)[O-])s1)NCc1ccc(F)cc1` was tested. Which inhibition (at 40.58 µM) did it give?
**A.** The inhibition was 70%.

**Q.** For `NS(=O)(=O)c1ccc(NC(=O)COC(=O)c2ccc([N+](=O)[O-])s2)cc1`, which inhibition (at 29.01 µM) is on record?
**A.** The inhibition was 94.1%.

**Q.** With `O=C(NC1=CC(=O)c2ccccc2C1=O)c1ccccc1` as the molecule, how does the inhibition (at 12.37 µM) read?
**A.** The inhibition was 33.4%.

**Q.** `COc1ccccc1NC(=O)COC(=O)c1ccc([N+](=O)[O-])s1` was tested. Which inhibition (at 35.07 µM) did it give?
**A.** Its inhibition is 84.1%.

**Q.** For `NC1=C(Cl)C(=O)c2ccc(S(N)(=O)=O)cc2C1=O`, which inhibition (at 0.39 µM) is on record?
**A.** The inhibition was 50.5%.

**Q.** How did the inhibition (at 1.31 µM) turn out when `O=C1Cc2ccccc2C(=O)N1Cc1ccccc1` was run?
**A.** Its inhibition is 37.1%.

**Q.** `CC1COCC(C)N1C1=C(Cl)C(=O)c2ccccc2C1=O` (stereo unspecified) was tested. Which inhibition (at 14.67 µM) did it give?
**A.** The inhibition was 24.6%.

**Q.** With `CCn1nc(/C=C/c2ccccc2)nc2c(=O)n(C)c(=O)nc1-2` as the molecule, how does the inhibition (at 0.49 µM) read?
**A.** Its inhibition is 96.1%.

**Q.** `CN(C1=C(NC(=O)c2ccccc2)C(=O)c2ccccc2C1=O)C1CCS(=O)(=O)C1` (stereo unspecified) was tested. Which inhibition (at 19.18 µM) did it give?
**A.** The inhibition was 27.5%.

**Q.** `O=C1C=C(Nc2ccccc2)c2ccccc2C1=O` was tested. Which inhibition (at 15.55 µM) did it give?
**A.** Its inhibition is 89.1%.

**Q.** With `O=C(/C=C/c1ccc(O)cc1)c1ccc(NC2=C(N3CCCCC3)C(=O)c3ccccc3C2=O)cc1` as the molecule, how does the inhibition (at 10.17 µM) read?
**A.** Its inhibition is 38.1%.

**Q.** Which inhibition (at 26.34 µM) does the source give for `O=C(COC(=O)c1ccc([N+](=O)[O-])s1)Nc1ccc(F)cc1` here?
**A.** Its inhibition is 99.5%.

**Q.** `CC1CCCC(NC(=O)COC(=O)c2ccc([N+](=O)[O-])s2)C1C` (stereo unspecified) was tested. Which inhibition (at 31.32 µM) did it give?
**A.** Its inhibition is 43.6%.

**Q.** Which inhibition (at 6.28 µM) does the source give for `COc1ccc2noc3c2c1C(=O)c1ccccc1-3` here?
**A.** Its inhibition is 27.6%.

**Q.** How did the inhibition (at 14.16 µM) turn out when `CCc1cc[n+](C2=C(NS(=O)(=O)c3cccs3)C(=O)c3ccccc3C2=O)cc1` was run?
**A.** The inhibition was 50.9%.

**Q.** Which inhibition (at 1.45 µM) does the source give for `O=c1[nH]c(Nc2ccccc2)cc2cc(Br)ccc12` here?
**A.** The inhibition was 22%.

**Q.** With `O=C1Cc2ccccc2C(=O)N1` as the molecule, how does the inhibition (at 0.6 µM) read?
**A.** Its inhibition is 39.2%.

**Q.** With `O=C1Cc2ccccc2C(=O)N1CCc1ccccc1` as the molecule, how does the inhibition (at 3.02 µM) read?
**A.** Its inhibition is 11.1% (inactive).

**Q.** `COC1=C(N)C(=O)c2nc(C)ccc2C1=O` was tested. Which inhibition (at 4.98 µM) did it give?
**A.** The inhibition was 53.1%.

**Q.** How did the inhibition (at 24.19 µM) turn out when `COC(CNC(=O)c1ccc2c3c(onc13)-c1ccccc1C2=O)OC` was run?
**A.** Its inhibition is 46%.

**Q.** `Cc1ccccc1-c1cc2c(nn1)-c1ccccc1C2=O` was tested. Which inhibition (at 4.5 µM) did it give?
**A.** The inhibition was 14.8% (inactive).

**Q.** With `O=C(NC1=C(NC2CCS(=O)(=O)C2)C(=O)c2ccccc2C1=O)c1ccccc1` (stereo unspecified) as the molecule, how does the inhibition (at 14.2 µM) read?
**A.** The inhibition was 43.9%.

**Q.** Which inhibition (at 18.9 µM) does the source give for `Cc1ccc2c(c1C)-c1c(ccc(C)c1C)C(=O)C2=O` here?
**A.** The inhibition was 55.7%.

**Q.** For `Cc1c(Cl)cnc(NC(=O)COC(=O)c2ccc([N+](=O)[O-])s2)c1Cl`, which inhibition (at 20.44 µM) is on record?
**A.** Its inhibition is 76.2%.

**Q.** For `Nc1cc2c(cc1Br)[nH]c(=O)c1ccccc12`, which inhibition (at 4.57 µM) is on record?
**A.** The inhibition was 4.29% (inactive).

**Q.** `NS(=O)(=O)c1ccc(NC2=CC(=O)C(=O)c3ccccc32)cc1` was tested. Which inhibition (at 11.51 µM) did it give?
**A.** The inhibition was 44.4%.

**Q.** How did the inhibition (at 21.72 µM) turn out when `COc1cc(NC(=O)COC(=O)c2ccc([N+](=O)[O-])s2)cc(OC)c1OC` was run?
**A.** The inhibition was 82.2%.

**Q.** How did the inhibition (at 1.16 µM) turn out when `Cn1nc(-c2ccccn2)nc2c(=O)n(C)c(=O)nc1-2` was run?
**A.** The inhibition was 75.7%.

**Q.** Which inhibition (at 23.49 µM) does the source give for `CC1(C)C=C2C(=NN(c3ccccc3)C(N)=C2C#N)CO1` here?
**A.** Its inhibition is 76.2%.

**Q.** Which inhibition (at 26.04 µM) does the source give for `O=C(OCc1nnc(-c2ccccc2)o1)c1ccc([N+](=O)[O-])s1` here?
**A.** The inhibition was 99.5%.

**Q.** Which inhibition (at 7.75 µM) does the source give for `CCOC(=O)N=Nc1c2ccccc2c2nc3no[nH]c3nc12` here?
**A.** The inhibition was 24.5%.

Reference: PubChem BioAssay AID743499 (The Scripps Research Institute Molecular Screening Center, 2014)
